Measured values taken from patent publication US20240343717A1, “MICROBIOCIDAL PYRAZOLE DERIVATIVES” (SYNGENTA CROP PROTECTION AG, priority 2021, published 2024).

How the values were obtained:
Alternaria solani = Alternaria solani / tomato / leaf disc (early blight); format: in vivo; conditions: foliar, tomato leaf disks, sprayed 2 days before inoculation, compared to untreated control
Method: Example B1: Alternaria solani/Tomato/Leaf Disc (Early Blight) Tomato leaf disks cv. Baby are placed on agar in multiwell plates (24-well format) and sprayed with the formulated test compound diluted in water. The leaf disks are inoculated with a spore suspension of the fungus 2 days after application. The inoculated leaf disks are incubated at 23° C./21° C.

[1] = tested on: Botryotinia fuckeliana (Botrytis cinerea); assay: Botryotinia fuckeliana (Botrytis cinerea) / liquid culture (gray mould); format: cell-based; conditions: growth inhibition photometrically 3-4 days after application, read-out: control of Botryotinia fuckeliana
Summary of the method: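 Conidia suspended in Vogels broth and added to compound dispensed from DMSO. Incubated at 24°C, with growth inhibition measured photometrically 3–4 days later.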

[2] = tested on: Glomerella lagenarium (Colletotrichum lagenarium); assay: Glomerella lagenarium (Colletotrichum lagenarium) / liquid culture (anthracnose); format: cell-based; conditions: Colletotrichum orbiculare, growth inhibition photometrically 3-4 days after application, read-out: control of Glomerella lagenarium
Summary of the method: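 Cryo-stored conidia in potato dextrose broth were added to test compound in DMSO. Plates were incubated at 24° C, and growth inhibition was read photometrically 3-4 days after application.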

Fusarium culmorum [3] = assay: microbe, parasite or virus in culture; format: cell-based; conditions: read-out: control of Fusarium culmorum
[4] = tested on: Monographella nivalis (Microdochium nivale); assay: Monographella nivalis (Microdochium nivale) / liquid culture (foot rot cereals); format: cell-based; conditions: growth inhibition photometrically 4-5 days after application, read-out: control of Monographella nivalis
Summary of the method: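 Fungal conidia mixed directly into potato dextrose broth and added to test compound delivered in DMSO. Incubated at 24° C; growth inhibition read photometrically 4-5 days after application.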

[5] = tested on: Mycosphaerella arachidis (Cercospora arachidicola); assay: Mycosphaerella arachidis (Cercospora arachidicola) / liquid culture (early leaf spot); format: cell-based; conditions: growth inhibition photometrically 4-5 days after application, read-out: control of Mycosphaerella arachidis
Summary of the method: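 Spores taken straight from cryostorage are suspended in potato dextrose broth and added to test compound in DMSO. Plates are incubated at 24° C. Growth inhibition is scored photometrically 4-5 days after application.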

Sclerotinia sclerotiorum = Sclerotinia sclerotiorum / liquid culture (cottony rot); format: cell-based; conditions: growth inhibition photometrically 3-4 days after application, read-out: control of Sclerotinia sclerotiorum
Method: Example B15: Sclerotinia sclerotiorum/Liquid Culture (Cottony Rot) Mycelia fragments of a newly grown liquid culture of the fungus are directly mixed into nutrient broth (PDB potato dextrose broth). After placing a (DMSO) solution of test compound into a microtiter plate (96-well format) the nutrient broth containing the fungal material is added. The test plates are incubated at 24° C. and the inhibition of growth is determined photometrically 3-4 days after application.

[6] = tested on: Mycosphaerella graminicola (Septoria tritici); assay: Mycosphaerella graminicola (Septoria tritici) / liquid culture (Septoria blotch); format: cell-based; conditions: Zymoseptoria tritici, growth inhibition photometrically 4-5 days after application, read-out: control of Mycosphaerella graminicola
Summary of the method: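 Conidia suspended in potato dextrose broth and added to test compound supplied in DMSO in 96-well plates. Incubated at 24 °C, and growth inhibition read photometrically 4-5 days after application.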

[7] = tested on: Blumeria graminis f. sp. tritici (Erysiphe graminis f. sp. tritici); assay: Blumeria graminis f. sp. tritici / wheat / leaf disc preventative (powdery mildew on wheat); format: in vivo; conditions: foliar, wheat leaf segments, inoculated 1 day after application
Summary of the method: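 Wheat cv. Kanzler leaf segments on agar sprayed with formulated compound in water, inoculated 1 day later by shaking mildew-infected plants overhead. Incubated at 20° C, 60% rh, 24 h dark then 12 h light/12 h dark. Percent disease control versus untreated scored 6-8 days after application.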

Fusarium culmorum [8] = assay: whole plant or invertebrate; format: in vivo; conditions: in Triticum aestivum, read-out: control of Fusarium culmorum
[9] = tested on: Phaeosphaeria nodorum (Septoria nodorum); assay: Phaeosphaeria nodorum (Septoria nodorum) / wheat / leaf disc preventative (glume blotch); format: in vivo; conditions: Parastagonospora nodorum, foliar, wheat leaf segments, inoculated 2 days after application
Summary of the method: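 Wheat cv. Kanzler leaf segments on agar sprayed preventatively with formulated compound diluted in water, then inoculated with spore suspension 2 days after application. Incubated at 20° C, 75% rh, 12 h light/12 h dark; percent disease control versus untreated scored 5-7 days after application.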

Pyrenophora teres = Pyrenophora teres / barley / leaf disc preventative (net blotch); format: in vivo; conditions: foliar, barley leaf segments, inoculated 2 days after application
Summary of the method: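 Barley cv. Hasso leaf segments on agar sprayed with formulated compound, inoculated with spores 2 days later. Incubated at 20 °C, 65% rh, 12 h light/dark; disease control versus untreated assessed 5–7 days after application.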

[10] = tested on: Gibberella zeae (Fusarium graminearum); assay: whole plant or invertebrate; format: in vivo; conditions: in Triticum aestivum, read-out: control of Gibberella zeae

Row | Structure (SMILES) | pest or weed control at 200 ppm (Alternaria solani) [%] | inhibition of growth at 20 ppm [1] [%] | inhibition of growth at 20 ppm [2] [%] | inhibition of growth at 20 ppm (Fusarium culmorum [3]) [%] | inhibition of growth at 20 ppm [4] [%] | inhibition of growth at 20 ppm [5] [%] | inhibition of growth at 20 ppm (Sclerotinia sclerotiorum) [%] | inhibition of growth at 20 ppm [6] [%] | melting point [°C] | pest or weed control at 200 ppm [7] [%] | pest or weed control at 200 ppm (Fusarium culmorum [8]) [%] | pest or weed control at 200 ppm [9] [%] | pest or weed control at 200 ppm (Pyrenophora teres) [%] | pest or weed control at 200 ppm [10] [%]
1 | Cn1cc(C(C)(CNC(=O)c2cc(-c3ccc(F)cc3F)on2)c2cccc(C(F)(F)F)n2)cn1 (stereo not drawn) [Compound P-106, 5-(2,4-difluorophenyl)-N-[2-(1-methylpyrazol-4-yl)-2-[6-(trifluoromethyl)-2-pyridyl]propyl] isoxazole-3-carboxamide] | ≥ 80 | ≥ 80 | ≥ 80 | ≥ 80 | ≥ 80 | ≥ 80 | ≥ 80 | ≥ 80 | 160 to 165 | – | – | – | – | –
2 | Cn1cc([C@@](C)(CNC(=O)c2nnc(-c3ccc(F)cc3F)s2)c2cccc(Cl)n2)cn1 [Compound P-34, N-[(2S)-2-(6-chloro-2-pyridyl)-2-(1-methylpyrazol-4-yl)propyl]-5-(2,4-difluorophenyl)-1,3,4-thiadiazole-2-carboxamide] | ≥ 80 | ≥ 80 | ≥ 80 | ≥ 80 | ≥ 80 | ≥ 80 | ≥ 80 | ≥ 80 | – | ≥ 80 | ≥ 80 | ≥ 80 | ≥ 80 | –
3 | Cn1cc([C@@](C)(CNC(=O)c2cc(-c3ccc(F)cc3F)on2)c2cccc(Cl)n2)cn1 [Compound P-30, N-[(2S)-2-(6-chloro-2-pyridyl)-2-(1-methylpyrazol-4-yl)propyl]-5-(2,4-difluorophenyl) isoxazole-3-carboxamide] | – | – | – | – | – | – | – | – | – | – | – | – | – | ≥ 80
4 | Cn1cc(C(C)(CNC(=O)c2cc(-c3ccc(F)cc3F)on2)c2cccc(Br)n2)cn1 (stereo not drawn) [Compound P-24, N-[2-(6-bromo-2-pyridyl)-2-(1-methylpyrazol-4-yl)propyl]-5-(2,4-difluorophenyl) isoxazole-3-carboxamide] | ≥ 80 | ≥ 80 | ≥ 80 | ≥ 80 | ≥ 80 | ≥ 80 | ≥ 80 | ≥ 80 | 141 to 143 | ≥ 80 | – | ≥ 80 | ≥ 80 | ≥ 80
5 | Cn1cc(C(C)(CNC(=O)c2cc(C3CCCC3)on2)c2cccc(Cl)n2)cn1 (stereo not drawn) [Compound P-80, N-[2-(6-chloro-2-pyridyl)-2-(1-methylpyrazol-4-yl)propyl]-5-cyclopentyl-isoxazole-3-carboxamide] | ≥ 80 | ≥ 80 | ≥ 80 | ≥ 80 | ≥ 80 | ≥ 80 | – | ≥ 80 | – | – | – | – | ≥ 80 | ≥ 80
6 | CCC(CNC(=O)c1cc(-c2ccc(F)cc2F)on1)(c1cnn(C)c1)c1cccc(Cl)n1 (stereo not drawn) [Compound P-31, N-[2-(6-chloro-2-pyridyl)-2-(1-methylpyrazol-4-yl)butyl]-5-(2,4-difluorophenyl) isoxazole-3-carboxamide] | ≥ 80 | ≥ 80 | ≥ 80 | ≥ 80 | ≥ 80 | ≥ 80 | ≥ 80 | ≥ 80 | – | ≥ 80 | ≥ 80 | ≥ 80 | ≥ 80 | –
7 | Cc1cccc(C(C)(CNC(=O)c2nnc(-c3ccc(F)cc3F)s2)c2cnn(C)c2Cl)n1 (stereo not drawn) [Compound P-82, N-[2-(5-chloro-1-methyl-pyrazol-4-yl)-2-(6-methyl-2-pyridyl)propyl]-5-(2,4-difluorophenyl)-1,3,4-thiadiazole-2-carboxamide] | ≥ 80 | ≥ 80 | ≥ 80 | ≥ 80 | ≥ 80 | ≥ 80 | ≥ 80 | ≥ 80 | – | ≥ 80 | – | ≥ 80 | ≥ 80 | ≥ 80
8 | Cn1cc([C@@](C)(CNC(=O)c2cc(-c3ccc(F)cc3F)on2)c2cccc(Cl)n2)cn1 [Compound P-29, N-[(2S)-2-(6-chloro-2-pyridyl)-2-(1-methylpyrazol-4-yl)propyl]-5-(2,4-difluorophenyl) isoxazole-3-carboxamide] | ≥ 80 | ≥ 80 | ≥ 80 | ≥ 80 | ≥ 80 | ≥ 80 | ≥ 80 | ≥ 80 | – | ≥ 80 | ≥ 80 | ≥ 80 | ≥ 80 | –
9 | Cn1cc(C(C)(CNC(=O)c2nnc(-c3ccc(F)cc3F)s2)c2cccc(Cl)n2)cn1 (stereo not drawn) [Compound P-9, N-[2-(6-chloro-2-pyridyl)-2-(1-methylpyrazol-4-yl)propyl]-5-(2,4-difluorophenyl)-1,3,4-thiadiazole-2-carboxamide] | ≥ 80 | ≥ 80 | ≥ 80 | ≥ 80 | ≥ 80 | ≥ 80 | ≥ 80 | ≥ 80 | – | ≥ 80 | – | ≥ 80 | ≥ 80 | ≥ 80
10 | Cn1cc(C(C)(CNC(=O)c2nnc(-c3ccc(F)cc3F)s2)c2cccc(C(F)(F)F)n2)cn1 (stereo not drawn) [Compound P-107, 5-(2,4-difluorophenyl)-N-[2-(1-methylpyrazol-4-yl)-2-[6-(trifluoromethyl)-2-pyridyl]propyl]-1,3,4-thiadiazole-2-carboxamide] | ≥ 80 | ≥ 80 | ≥ 80 | ≥ 80 | ≥ 80 | ≥ 80 | ≥ 80 | ≥ 80 | 162 to 163 | ≥ 80 | – | – | ≥ 80 | –
11 | COc1cc(Cl)nc([C@@](C)(CNC(=O)c2cc(-c3ccc(F)cc3F)no2)c2cnn(C)c2)c1 [Compound P-46, N-[(2R)-2-(6-chloro-4-methoxy-2-pyridyl)-2-(1-methylpyrazol-4-yl)propyl]-3-(2,4-difluorophenyl) isoxazole-5-carboxamide] | – | ≥ 80 | ≥ 80 | ≥ 80 | ≥ 80 | ≥ 80 | – | ≥ 80 | – | – | ≥ 80 | – | – | ≥ 80
